{
  "source": "paper PMC6979384",
  "about": "“Characterization of the plant homeodomain (PHD) reader family for their histone tail interactions” (Epigenetics & Chromatin, 2020)",
  "experiment_in_all_cases": "Histone peptide microarray",
  "assay_type_in_all_cases": "binding, human",
  "key": {"AIRE (PP)": {"system": "AIRE (PP)", "settings": "GST-tagged AIRE (PP); sheet Array Heatmap; each array performed twice, total n = 4", "procedure,_shortened": "(§1)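 GST-PHD reader, 0.5 μM, probed on 293-peptide histone array (single/combinatorial PTMs); optimized array protocol; signal = mean ± SD, n = 4.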"}, "BAZ2B": {"system": "BAZ2B", "settings": "GST-tagged BAZ2B; sheet Array Heatmap; each array performed twice, total n = 4", "procedure,_shortened": "as §1"}, "BPTF (PB)": {"system": "BPTF (PB)", "settings": "GST-tagged BPTF (PB = PHD + Bromodomain); sheet Array Heatmap; each array performed twice, total n = 4", "procedure,_shortened": "as §1"}, "CHD4 (PPCC)": {"system": "CHD4 (PPCC)", "settings": "GST-tagged CHD4 (PPCC = Dual PHD + Dual Chromodomain); sheet Array Heatmap; each array performed twice, total n = 4", "procedure,_shortened": "as §1"}, "CHD5 (PCC)": {"system": "CHD5 (PCC)", "settings": "GST-tagged CHD5 (PCC = PHD + Dual Chromodomain); sheet Array Heatmap; each array performed twice, total n = 4", "procedure,_shortened": "as §1"}, "CHD5 (PPCC)": {"system": "CHD5 (PPCC)", "settings": "GST-tagged CHD5 (PPCC = Dual PHD + Dual Chromodomain); sheet Array Heatmap; each array performed twice, total n = 4", "procedure,_shortened": "as §1"}, "DIDO1": {"system": "DIDO1", "settings": "GST-tagged DIDO1; sheet Array Heatmap; each array performed twice, total n = 4", "procedure,_shortened": "as §1"}, "DPF2 (PPC2W2)": {"system": "DPF2 (PPC2W2)", "settings": "GST-tagged DPF2 (PPC2W2 = Dual PHD + C2W2-type Zn-finger); sheet Array Heatmap; each array performed twice, total n = 4", "procedure,_shortened": "as §1"}, "ING1": {"system": "ING1", "settings": "GST-tagged ING1; sheet Array Heatmap; each array performed twice, total n = 4", "procedure,_shortened": "as §1"}, "ING2": {"system": "ING2", "settings": "GST-tagged ING2; sheet Array Heatmap; each array performed twice, total n = 4", "procedure,_shortened": "as §1"}, "ING3": {"system": "ING3", "settings": "GST-tagged ING3; sheet Array Heatmap; each array performed twice, total n = 4", "procedure,_shortened": "as §1"}, "ING4": {"system": "ING4", "settings": "GST-tagged ING4; sheet Array Heatmap; each array performed twice, total n = 4", "procedure,_shortened": "as §1"}, "ING5": {"system": "ING5", "settings": "GST-tagged ING5; sheet Array Heatmap; each array performed twice, total n = 4", "procedure,_shortened": "as §1"}, "KDM4C (TTP)": {"system": "KDM4C (TTP)", "settings": "GST-tagged KDM4C (TTP = Tandem Tudor domain + PHD); sheet Array Heatmap; each array performed twice, total n = 4", "procedure,_shortened": "as §1"}, "KDM5A (1)": {"system": "KDM5A (1)", "settings": "GST-tagged KDM5A (1); sheet Array Heatmap; each array performed twice, total n = 4", "procedure,_shortened": "as §1"}, "KDM5A (3)": {"system": "KDM5A (3)", "settings": "GST-tagged KDM5A (3); sheet Array Heatmap; each array performed twice, total n = 4", "procedure,_shortened": "as §1"}, "KDM5B (1)": {"system": "KDM5B (1)", "settings": "GST-tagged KDM5B (1); sheet Array Heatmap; each array performed twice, total n = 4", "procedure,_shortened": "as §1"}, "KDM5B (3)": {"system": "KDM5B (3)", "settings": "GST-tagged KDM5B (3); sheet Array Heatmap; each array performed twice, total n = 4", "procedure,_shortened": "as §1"}, "KDM7A": {"system": "KDM7A", "settings": "GST-tagged KDM7A; sheet Array Heatmap; each array performed twice, total n = 4", "procedure,_shortened": "as §1"}, "MLL5": {"system": "MLL5", "settings": "GST-tagged MLL5; sheet Array Heatmap; each array performed twice, total n = 4", "procedure,_shortened": "as §1"}, "MORC3 (CW)": {"system": "MORC3 (CW)", "settings": "GST-tagged MORC3 (CW = CW-type Zn-finger); sheet Array Heatmap; each array performed twice, total n = 4", "procedure,_shortened": "as §1"}, "PHF13": {"system": "PHF13", "settings": "GST-tagged PHF13; sheet Array Heatmap; each array performed twice, total n = 4", "procedure,_shortened": "as §1"}, "PHF21A": {"system": "PHF21A", "settings": "GST-tagged PHF21A; sheet Array Heatmap; each array performed twice, total n = 4", "procedure,_shortened": "as §1"}, "PHF23": {"system": "PHF23", "settings": "GST-tagged PHF23; sheet Array Heatmap; each array performed twice, total n = 4", "procedure,_shortened": "as §1"}, "PHF2": {"system": "PHF2", "settings": "GST-tagged PHF2; sheet Array Heatmap; each array performed twice, total n = 4", "procedure,_shortened": "as §1"}, "PHF8": {"system": "PHF8", "settings": "GST-tagged PHF8; sheet Array Heatmap; each array performed twice, total n = 4", "procedure,_shortened": "as §1"}, "PHRF1 (RP)": {"system": "PHRF1 (RP)", "settings": "GST-tagged PHRF1 (RP); sheet Array Heatmap; each array performed twice, total n = 4", "procedure,_shortened": "as §1"}, "RAG2": {"system": "RAG2", "settings": "GST-tagged RAG2; sheet Array Heatmap; each array performed twice, total n = 4", "procedure,_shortened": "as §1"}, "SP140L": {"system": "SP140L", "settings": "GST-tagged SP140L; sheet Array Heatmap; each array performed twice, total n = 4", "procedure,_shortened": "as §1"}, "TAF3": {"system": "TAF3", "settings": "GST-tagged TAF3; sheet Array Heatmap; each array performed twice, total n = 4", "procedure,_shortened": "as §1"}, "TRIM66 (PB)": {"system": "TRIM66 (PB)", "settings": "GST-tagged TRIM66 (PB = PHD + Bromodomain); sheet Array Heatmap; each array performed twice, total n = 4", "procedure,_shortened": "as §1"}},
  "data": [
    {"substance": "H3T3p + K4me3: H3 1-20", "values": [
      {"measurement": "Array Heatmap signal (histone peptide microarray)", "setting": "AIRE (PP)", "value": 0.3968},
      {"measurement": "Array Heatmap signal (histone peptide microarray)", "setting": "BAZ2B", "value": 0.4608},
      {"measurement": "Array Heatmap signal (histone peptide microarray)", "setting": "BPTF (PB)", "value": 0.35},
      {"measurement": "Array Heatmap signal (histone peptide microarray)", "setting": "CHD4 (PPCC)", "value": 0.624},
      {"measurement": "Array Heatmap signal (histone peptide microarray)", "setting": "CHD5 (PCC)", "value": 0.7821},
      {"measurement": "Array Heatmap signal (histone peptide microarray)", "setting": "CHD5 (PPCC)", "value": 0.5481},
      {"measurement": "Array Heatmap signal (histone peptide microarray)", "setting": "DIDO1", "value": 0.6916},
      {"measurement": "Array Heatmap signal (histone peptide microarray)", "setting": "DPF2 (PPC2W2)", "value": 0.6866},
      {"measurement": "Array Heatmap signal (histone peptide microarray)", "setting": "ING1", "value": 0.5588},
      {"measurement": "Array Heatmap signal (histone peptide microarray)", "setting": "ING2", "value": 0.6632},
      {"measurement": "Array Heatmap signal (histone peptide microarray)", "setting": "ING3", "value": 0.4764},
      {"measurement": "Array Heatmap signal (histone peptide microarray)", "setting": "ING4", "value": 0.4716},
      {"measurement": "Array Heatmap signal (histone peptide microarray)", "setting": "ING5", "value": 0.3533},
      {"measurement": "Array Heatmap signal (histone peptide microarray)", "setting": "KDM4C (TTP)", "value": 0.4706},
      {"measurement": "Array Heatmap signal (histone peptide microarray)", "setting": "KDM5A (1)", "value": 0.462},
      {"measurement": "Array Heatmap signal (histone peptide microarray)", "setting": "KDM5A (3)", "value": 0.5826},
      {"measurement": "Array Heatmap signal (histone peptide microarray)", "setting": "KDM5B (1)", "value": 0.6609},
      {"measurement": "Array Heatmap signal (histone peptide microarray)", "setting": "KDM5B (3)", "value": 0.5163},
      {"measurement": "Array Heatmap signal (histone peptide microarray)", "setting": "KDM7A", "value": 0.3295},
      {"measurement": "Array Heatmap signal (histone peptide microarray)", "setting": "MLL5", "value": 0.5412},
      {"measurement": "Array Heatmap signal (histone peptide microarray)", "setting": "MORC3 (CW)", "value": 0.5559},
      {"measurement": "Array Heatmap signal (histone peptide microarray)", "setting": "PHF13", "value": 0.62},
      {"measurement": "Array Heatmap signal (histone peptide microarray)", "setting": "PHF21A", "value": 0.4603},
      {"measurement": "Array Heatmap signal (histone peptide microarray)", "setting": "PHF23", "value": 0.5295},
      {"measurement": "Array Heatmap signal (histone peptide microarray)", "setting": "PHF2", "value": 0.5905},
      {"measurement": "Array Heatmap signal (histone peptide microarray)", "setting": "PHF8", "value": 0.3669},
      {"measurement": "Array Heatmap signal (histone peptide microarray)", "setting": "PHRF1 (RP)", "value": 0.4433},
      {"measurement": "Array Heatmap signal (histone peptide microarray)", "setting": "RAG2", "value": 0.2672},
      {"measurement": "Array Heatmap signal (histone peptide microarray)", "setting": "SP140L", "value": 0.3246},
      {"measurement": "Array Heatmap signal (histone peptide microarray)", "setting": "TAF3", "value": 0.2953},
      {"measurement": "Array Heatmap signal (histone peptide microarray)", "setting": "TRIM66 (PB)", "value": 0.5989}
    ]}
  ]
}
